Source: ChEMBL document CHEMBL3271937, “Isoquinolines. 6. Potential central nervous system antitumor agents. Nitrogen mustards of 3-amino-4-(p-aminophenyl)isoquinoline” (J Med Chem, 1977)
Active and inactive are the calls of the source. The calls are words filed in the database; no cut-off is given here.

Experiments:
[1] = Octanol-water partition coefficient, log P of the compound; type: physicochemical
[2] = tested on: L1210; assay: Antitumor activity against mouse L1210 cells allografted in mouse assessed as tumor growth inhibition at 400 mg/kg, ip; type: functional, organism-based; set-up: dose 400 mg/kg
[3] = tested on: Mus musculus; assay: Toxicity in mouse allografted with mouse L1210 cells at 25 to 400 mg/kg, ip; type: organism-based; set-up: dose 25-400 mg/kg, route intraperitoneal; conditions: in vivo
[4] = tested on: Mus musculus; assay: Toxicity in mouse allografted with mouse L1210 cells at 200 mg/kg, ip; type: organism-based; set-up: dose 200 mg/kg, route intraperitoneal; conditions: in vivo

Row | SMILES | logP [1] | TGI [2] | Activity [3] | Activity [4]
1 | Nc1ccc(-c2c(N)ncc3ccccc23)cc1 | 2.58 |  |  | 
2 | CC(=O)Nc1ncc2ccccc2c1-c1ccc(NC(=O)CCN(CCCl)CCCl)cc1 |  | inactive | Non-toxic | 
3 | CCNc1ncc2ccccc2c1-c1ccc(NC(=O)CCN(CCCl)CCCl)cc1.Cl | 7.43 | inactive |  | Toxic
4 | CC(=O)Nc1ncc2ccccc2c1-c1ccc(NC(=O)CN(CCCl)CCCl)cc1 | 3.87 | inactive | Non-toxic | 
5 | CC(=O)Nc1nc(Br)c2ccccc2c1-c1ccc(N(CCCl)CCCl)cc1.Cl |  | inactive | Non-toxic | 
6 | Nc1ncc2ccccc2c1-c1ccc(NC(=O)CN(CCCl)CCCl)cc1 |  | inactive | Non-toxic | 
7 | CC(=O)Nc1ncc2ccccc2c1-c1ccc(N(CCCl)CCCl)cc1 |  | inactive | Non-toxic | 
